In one series the target is Bile salt export pump (Homo sapiens, UniProt O95342). Nature of the series: Inhibition of human BSEP overexpressed in Sf9 cell membrane vesicles assessed as uptake of [3H]-taurocholate in presence of ATP measured after 15 to 20 mins by membrane vesicle transport assay. Format: ADME, cell-based.
The target of series [1] is ATP-binding cassette sub-family C member 3 (Homo sapiens, UniProt O15438). Nature of the series: Inhibition of human MRP3 overexpressed in Sf9 insect cell membrane vesicles assessed as uptake of [3H]-estradiol-17beta-D-glucuronide in presence of ATP and GSH measured after 10 mins by membrane vesicle transport assay. In kind it is ADME, cell-based.
A short description of series [2]: Drug concentration at steady state in human at 100 to 300 mg, po QD after 24 hrs. To be noted: in vivo, read-out: Css. In kind it is ADME, organism-based.
A short description of series [3]: Ratio of drug concentration at steady state in human at 100 to 300 mg, po QD after 24 hrs to IC50 for human MRP2 overexpressed in Sf9 insect cells. Format: ADME, organism-based. The note with it: in vivo.
A short description of series [4]: AUC in human at 100 to 300 mg, po QD after 24 hrs. In kind it is ADME, organism-based. The note with it: in vivo.
Series [5] in a line: Ratio of drug concentration at steady state in human at 100 to 300 mg, po QD after 24 hrs to IC50 for human BSEP overexpressed in Sf9 insect cells. In kind it is ADME, organism-based. To be noted: in vivo.
For series [6], the target named is T1, ATP-binding cassette sub-family C member 4 (Homo sapiens, UniProt O15439).
T1 sequence (O15439 whole entry): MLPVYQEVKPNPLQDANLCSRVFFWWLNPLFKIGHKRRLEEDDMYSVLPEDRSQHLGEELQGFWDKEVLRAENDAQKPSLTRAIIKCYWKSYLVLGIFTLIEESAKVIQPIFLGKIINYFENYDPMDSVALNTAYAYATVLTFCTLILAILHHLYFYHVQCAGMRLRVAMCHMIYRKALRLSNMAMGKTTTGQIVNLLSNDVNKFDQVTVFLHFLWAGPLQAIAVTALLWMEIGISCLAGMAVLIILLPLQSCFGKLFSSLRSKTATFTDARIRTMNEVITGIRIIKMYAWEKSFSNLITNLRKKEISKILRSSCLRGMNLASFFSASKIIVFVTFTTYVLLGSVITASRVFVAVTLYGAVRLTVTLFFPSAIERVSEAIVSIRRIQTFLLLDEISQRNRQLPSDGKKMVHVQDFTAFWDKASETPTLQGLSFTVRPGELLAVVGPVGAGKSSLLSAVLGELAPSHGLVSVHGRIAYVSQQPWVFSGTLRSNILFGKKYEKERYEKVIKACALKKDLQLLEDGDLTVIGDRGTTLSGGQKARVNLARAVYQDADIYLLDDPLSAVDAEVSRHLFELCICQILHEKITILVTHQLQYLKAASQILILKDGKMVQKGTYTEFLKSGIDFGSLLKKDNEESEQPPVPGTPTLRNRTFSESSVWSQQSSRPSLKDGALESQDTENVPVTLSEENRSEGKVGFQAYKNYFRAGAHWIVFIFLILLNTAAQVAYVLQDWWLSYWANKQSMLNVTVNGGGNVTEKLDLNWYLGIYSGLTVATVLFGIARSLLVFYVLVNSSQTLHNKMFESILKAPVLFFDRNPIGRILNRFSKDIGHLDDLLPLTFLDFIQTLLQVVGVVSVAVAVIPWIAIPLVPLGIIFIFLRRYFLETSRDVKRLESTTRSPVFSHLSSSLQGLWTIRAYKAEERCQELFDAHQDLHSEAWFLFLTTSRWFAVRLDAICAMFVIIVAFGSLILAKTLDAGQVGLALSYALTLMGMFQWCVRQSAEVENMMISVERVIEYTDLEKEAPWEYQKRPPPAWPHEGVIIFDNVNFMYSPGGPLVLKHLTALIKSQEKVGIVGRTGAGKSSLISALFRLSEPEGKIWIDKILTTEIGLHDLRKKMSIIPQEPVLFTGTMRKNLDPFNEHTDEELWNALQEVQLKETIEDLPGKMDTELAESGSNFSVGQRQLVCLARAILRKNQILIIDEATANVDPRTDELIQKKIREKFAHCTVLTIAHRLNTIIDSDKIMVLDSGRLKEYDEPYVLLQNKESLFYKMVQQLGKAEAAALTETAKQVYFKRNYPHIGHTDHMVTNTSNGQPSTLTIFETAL
Nature of the series: Inhibition of human MRP4 overexpressed in Sf9 cell membrane vesicles assessed as uptake of [3H]-estradiol-17beta-D-glucuronide in presence of ATP and GSH measured after 20 mins by membrane vesicle transport assay. Format: ADME, cell-based.

Series [7] is described as follows: Ratio of drug concentration at steady state in human at 100 to 300 mg, po QD after 24 hrs to IC50 for human MRP3 overexpressed in Sf9 insect cells. The note with it: in vivo. Format: ADME, organism-based.
A short description of series [8]: Ratio of drug concentration at steady state in human at 2 to 8 mg, po QD after 24 hrs to IC50 for human MRP4 overexpressed in Sf9 insect cells. In kind it is ADME, organism-based. To be noted: in vivo.
The nature of series [9]: AUC in human at 2 to 8 mg, po QD after 24 hrs. In kind it is ADME, organism-based. The note with it: in vivo.
Series [10] is described as follows: Drug concentration at steady state in human at 2 to 8 mg, po QD after 24 hrs. Format: ADME, organism-based. To be noted: in vivo, read-out: Css.
Series [11] can be described thus: Ratio of drug concentration at steady state in human at 2 to 8 mg, po QD after 24 hrs to IC50 for human BSEP overexpressed in Sf9 insect cells. In kind it is ADME, organism-based. To be noted: in vivo.
Series [12] in a line: Drug concentration at steady state in human at 150 to 600 mg, iv QD after 24 hrs. To be noted: in vivo, read-out: Css. In kind it is ADME, organism-based.
The target in series [13] is ATP-binding cassette sub-family C member 2 (Homo sapiens, UniProt Q92887). In words: Inhibition of human MRP2 overexpressed in Sf9 cell membrane vesicles assessed as uptake of [3H]-estradiol-17beta-D-glucuronide in presence of ATP and GSH measured after 20 mins by membrane vesicle transport assay.
Series [14] can be described thus: Ratio of drug concentration at steady state in human at 150 to 600 mg, iv QD after 24 hrs to IC50 for human BSEP overexpressed in Sf9 insect cells. Format: ADME, organism-based. To be noted: in vivo.
Series [15] in a line: Ratio of drug concentration at steady state in human at 150 to 600 mg, iv QD after 24 hrs to IC50 for human MRP4 overexpressed in Sf9 insect cells. Format: ADME, organism-based. To be noted: in vivo.
Series [16] can be described thus: AUC in human at 150 to 600 mg, iv QD after 24 hrs. In kind it is ADME, organism-based. The note with it: in vivo.
The nature of series [17]: Ratio of drug concentration at steady state in human at 150 to 600 mg, iv QD after 24 hrs to IC50 for human MRP2 overexpressed in Sf9 insect cells. Format: ADME, organism-based. To be noted: in vivo.
Series [18] in a line: Ratio of drug concentration at steady state in human at 150 to 600 mg, iv QD after 24 hrs to IC50 for human MRP3 overexpressed in Sf9 insect cells. Format: ADME, organism-based. The note with it: in vivo.
Series [19] can be described thus: Ratio of drug concentration at steady state in human at 300 mg, po QD after 24 hrs to IC50 for human BSEP overexpressed in Sf9 insect cells. Format: ADME, organism-based. The note with it: in vivo.
Series [20] in a line: AUC in human at 300 mg, po QD after 24 hrs. Format: ADME, organism-based. On the set-up: time < 24 hr, dose 300 mg, route oral. The note with it: in vivo.
Series [21] is described as follows: Ratio of drug concentration at steady state in human at 300 mg, po QD after 24 hrs to IC50 for human MRP4 overexpressed in Sf9 insect cells. Format: ADME, organism-based. The note with it: in vivo.
The nature of series [22]: Drug concentration at steady state in human at 300 mg, po QD after 24 hrs. In kind it is ADME, organism-based. To be noted: in vivo, read-out: Css.
The nature of series [23]: Ratio of drug concentration at steady state in human at 60 to 100 mg/m2, iv via infusion for 1 hr every 3 weeks measured after 1 hr to IC50 for human BSEP overexpressed in Sf9 insect cells. In kind it is ADME, organism-based.
Series [24] can be described thus: Drug concentration at steady state in human at 60 to 100 mg/m2, iv via infusion for 1 hr every 3 weeks measured after 1 hr. In kind it is ADME, organism-based. The note with it: in vivo, read-out: Css.
Series [25] can be described thus: AUC in human at 60 to 100 mg/m2, iv via infusion for 1 hr every 3 weeks measured after 1 hr. In kind it is ADME, organism-based. On the set-up: time < 1 hr, route intravenous. The note with it: in vivo.

Here are results for five compounds from ChEMBL document CHEMBL4028801, “A multifactorial approach to hepatobiliary transporter assessment enables improved therapeutic compound development” (Toxicol Sci, 2013).

ATP-binding cassette sub-family C member 2, sequence (Q92887 whole entry): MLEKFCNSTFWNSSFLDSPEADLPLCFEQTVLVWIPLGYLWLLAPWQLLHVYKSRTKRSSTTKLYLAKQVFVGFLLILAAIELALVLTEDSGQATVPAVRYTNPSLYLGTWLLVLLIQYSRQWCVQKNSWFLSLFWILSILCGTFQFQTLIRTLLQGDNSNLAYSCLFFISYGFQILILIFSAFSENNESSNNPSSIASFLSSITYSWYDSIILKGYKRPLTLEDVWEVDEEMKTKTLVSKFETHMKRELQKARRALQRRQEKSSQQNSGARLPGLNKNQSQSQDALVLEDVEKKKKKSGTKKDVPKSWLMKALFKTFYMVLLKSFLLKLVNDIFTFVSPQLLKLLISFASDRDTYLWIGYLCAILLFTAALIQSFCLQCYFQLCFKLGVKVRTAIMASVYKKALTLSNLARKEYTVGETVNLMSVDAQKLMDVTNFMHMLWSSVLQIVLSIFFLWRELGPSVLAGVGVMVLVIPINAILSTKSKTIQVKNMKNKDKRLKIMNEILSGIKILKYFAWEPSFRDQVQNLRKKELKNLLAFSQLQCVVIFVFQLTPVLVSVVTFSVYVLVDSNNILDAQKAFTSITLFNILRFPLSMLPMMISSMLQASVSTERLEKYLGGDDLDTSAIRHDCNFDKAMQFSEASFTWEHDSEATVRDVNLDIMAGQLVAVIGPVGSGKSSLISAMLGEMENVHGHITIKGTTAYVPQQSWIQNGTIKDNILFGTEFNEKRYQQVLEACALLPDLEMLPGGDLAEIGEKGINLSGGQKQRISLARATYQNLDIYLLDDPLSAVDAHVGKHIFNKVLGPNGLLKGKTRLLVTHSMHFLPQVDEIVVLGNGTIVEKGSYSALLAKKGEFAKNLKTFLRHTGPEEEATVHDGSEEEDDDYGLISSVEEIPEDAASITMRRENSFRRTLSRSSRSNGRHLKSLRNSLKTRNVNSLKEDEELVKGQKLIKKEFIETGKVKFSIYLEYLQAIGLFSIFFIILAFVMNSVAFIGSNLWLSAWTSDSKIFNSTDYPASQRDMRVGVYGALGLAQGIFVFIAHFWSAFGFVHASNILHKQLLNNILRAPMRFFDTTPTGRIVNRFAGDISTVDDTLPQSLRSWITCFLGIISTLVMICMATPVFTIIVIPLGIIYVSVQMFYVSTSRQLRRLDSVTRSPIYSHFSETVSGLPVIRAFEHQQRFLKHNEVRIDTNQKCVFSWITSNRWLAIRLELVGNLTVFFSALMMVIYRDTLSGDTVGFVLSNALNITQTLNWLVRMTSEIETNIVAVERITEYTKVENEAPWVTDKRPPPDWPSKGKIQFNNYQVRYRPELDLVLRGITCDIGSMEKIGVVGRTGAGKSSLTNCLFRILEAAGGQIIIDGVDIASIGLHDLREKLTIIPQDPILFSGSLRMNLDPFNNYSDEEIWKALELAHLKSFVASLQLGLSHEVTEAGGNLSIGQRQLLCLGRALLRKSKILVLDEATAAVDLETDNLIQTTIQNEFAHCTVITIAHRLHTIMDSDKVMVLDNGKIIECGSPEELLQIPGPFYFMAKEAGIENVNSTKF
Bile salt export pump, sequence (O95342 whole entry): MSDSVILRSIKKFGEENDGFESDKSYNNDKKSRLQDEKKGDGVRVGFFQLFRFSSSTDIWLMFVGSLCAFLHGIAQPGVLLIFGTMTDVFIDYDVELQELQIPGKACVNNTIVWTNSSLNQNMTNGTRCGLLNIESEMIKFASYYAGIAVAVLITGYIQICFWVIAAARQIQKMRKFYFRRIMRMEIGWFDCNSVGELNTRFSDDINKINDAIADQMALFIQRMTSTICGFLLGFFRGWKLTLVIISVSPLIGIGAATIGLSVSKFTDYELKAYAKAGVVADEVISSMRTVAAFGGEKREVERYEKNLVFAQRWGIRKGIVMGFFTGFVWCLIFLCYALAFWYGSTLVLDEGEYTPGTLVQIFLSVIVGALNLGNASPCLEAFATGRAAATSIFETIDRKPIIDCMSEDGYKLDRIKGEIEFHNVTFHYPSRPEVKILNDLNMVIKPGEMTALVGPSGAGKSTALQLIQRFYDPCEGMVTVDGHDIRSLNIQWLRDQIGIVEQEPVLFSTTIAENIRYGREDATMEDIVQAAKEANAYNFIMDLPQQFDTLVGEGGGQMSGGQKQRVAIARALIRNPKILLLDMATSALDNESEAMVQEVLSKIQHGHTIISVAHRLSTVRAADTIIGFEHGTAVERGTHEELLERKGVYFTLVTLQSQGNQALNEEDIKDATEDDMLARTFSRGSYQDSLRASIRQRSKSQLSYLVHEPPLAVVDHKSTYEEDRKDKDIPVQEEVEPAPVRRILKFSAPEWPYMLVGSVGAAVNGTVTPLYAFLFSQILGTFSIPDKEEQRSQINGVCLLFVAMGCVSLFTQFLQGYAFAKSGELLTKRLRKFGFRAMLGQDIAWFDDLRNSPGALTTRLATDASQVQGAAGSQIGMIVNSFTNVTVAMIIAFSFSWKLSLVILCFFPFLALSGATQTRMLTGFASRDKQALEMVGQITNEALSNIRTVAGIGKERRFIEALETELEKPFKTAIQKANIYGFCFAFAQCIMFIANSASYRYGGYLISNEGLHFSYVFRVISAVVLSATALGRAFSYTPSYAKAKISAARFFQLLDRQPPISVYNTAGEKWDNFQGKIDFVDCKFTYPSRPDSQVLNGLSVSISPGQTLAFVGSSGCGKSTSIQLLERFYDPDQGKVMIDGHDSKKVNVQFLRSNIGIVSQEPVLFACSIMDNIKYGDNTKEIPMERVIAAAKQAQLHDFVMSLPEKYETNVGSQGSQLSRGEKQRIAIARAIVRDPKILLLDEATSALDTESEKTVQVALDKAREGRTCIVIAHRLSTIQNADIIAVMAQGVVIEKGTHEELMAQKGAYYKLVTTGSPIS
ATP-binding cassette sub-family C member 3, sequence (O15438 whole entry): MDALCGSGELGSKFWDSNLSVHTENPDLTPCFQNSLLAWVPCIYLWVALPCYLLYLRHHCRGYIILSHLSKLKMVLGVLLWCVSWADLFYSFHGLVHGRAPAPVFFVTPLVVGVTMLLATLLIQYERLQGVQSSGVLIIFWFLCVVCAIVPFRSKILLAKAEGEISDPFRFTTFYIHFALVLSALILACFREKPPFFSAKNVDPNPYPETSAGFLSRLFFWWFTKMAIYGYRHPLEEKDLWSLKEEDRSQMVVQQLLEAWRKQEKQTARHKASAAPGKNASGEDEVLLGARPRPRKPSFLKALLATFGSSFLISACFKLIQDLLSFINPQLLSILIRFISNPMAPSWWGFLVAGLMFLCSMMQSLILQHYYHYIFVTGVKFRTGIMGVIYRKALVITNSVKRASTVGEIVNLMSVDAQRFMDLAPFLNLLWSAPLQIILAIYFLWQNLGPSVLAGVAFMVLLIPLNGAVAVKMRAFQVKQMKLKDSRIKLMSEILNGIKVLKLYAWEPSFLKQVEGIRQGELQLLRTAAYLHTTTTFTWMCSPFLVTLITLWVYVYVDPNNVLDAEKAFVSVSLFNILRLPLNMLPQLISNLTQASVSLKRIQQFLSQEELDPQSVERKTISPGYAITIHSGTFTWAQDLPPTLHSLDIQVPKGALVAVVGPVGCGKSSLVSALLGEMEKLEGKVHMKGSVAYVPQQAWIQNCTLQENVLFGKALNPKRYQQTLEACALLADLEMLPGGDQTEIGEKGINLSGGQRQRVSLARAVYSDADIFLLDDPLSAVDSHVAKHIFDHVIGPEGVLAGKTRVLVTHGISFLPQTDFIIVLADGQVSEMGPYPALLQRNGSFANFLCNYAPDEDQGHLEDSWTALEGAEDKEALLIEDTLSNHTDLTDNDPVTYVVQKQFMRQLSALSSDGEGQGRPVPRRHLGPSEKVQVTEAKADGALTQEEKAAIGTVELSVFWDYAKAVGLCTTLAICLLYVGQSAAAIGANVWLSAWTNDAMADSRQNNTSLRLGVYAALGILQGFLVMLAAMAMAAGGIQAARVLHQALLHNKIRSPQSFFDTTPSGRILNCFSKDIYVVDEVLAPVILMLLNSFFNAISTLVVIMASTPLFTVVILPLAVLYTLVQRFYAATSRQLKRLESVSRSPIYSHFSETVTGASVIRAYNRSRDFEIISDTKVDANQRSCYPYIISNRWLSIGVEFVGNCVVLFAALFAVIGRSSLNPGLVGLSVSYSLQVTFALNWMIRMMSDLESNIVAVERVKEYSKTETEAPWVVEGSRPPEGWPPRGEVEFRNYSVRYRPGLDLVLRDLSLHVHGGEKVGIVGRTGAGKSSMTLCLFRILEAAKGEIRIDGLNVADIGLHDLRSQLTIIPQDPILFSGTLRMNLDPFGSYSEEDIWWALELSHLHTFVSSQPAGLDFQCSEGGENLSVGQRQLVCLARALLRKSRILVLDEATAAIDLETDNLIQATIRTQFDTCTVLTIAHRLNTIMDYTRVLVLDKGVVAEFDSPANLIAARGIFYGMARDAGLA

In the case of `Cc1cc2c(cc1CC(=O)c1sccc1S(=O)(=O)Nc1onc(C)c1Cl)OCO2` [SITAXENTAN], the IC50 at Bile salt export pump was found to be 12.6 µM; in series [1], 45.4 µM; in series [6] it was 28.4 µM. In [2], the concentration at 24 h was 2000 nM. Besides, the Ratio in series [3] was determined as 0.044; in series [5], 0.158; in series [7] it was 0.07. The AUC at 24 h in series [4] is 47.9 µM·h.

With `CN(CCOc1ccc(CC2SC(=O)NC2=O)cc1)c1ccccn1` (centres undefined) [ROSIGLITAZONE], the values for the IC50 (on Bile salt export pump; in series [1]; in series [6]) were 2.8 µM, over 133 µM and 21 µM, respectively. For the same compound, the Ratio in [8] worked out at 0.016; in series [11], 0.119. Also, in series [9], the AUC at 24 h was 8.02 µM·h. Further, in series [10], the concentration at 24 h was 334 nM.

For `CO[C@H]1/C=C/O[C@@]2(C)Oc3c(C)c(O)c4c(O)c(c(/C=N/N5CCN(C)CC5)c(O)c4c3C2=O)NC(=O)/C(C)=C\C=C\[C@H](C)[C@H](O)[C@@H](C)[C@@H](O)[C@@H](C)[C@H](OC(C)=O)[C@@H]1C` [RIFAMPIN], the concentration at 24 h in series [12] worked out at 3730 nM. Moreover, the IC50 came out at 69 µM in [1], 53 µM in series [13] and 41.9 µM in [6]. Moreover, the Ratio worked out at 0.147 in [14], 0.089 in [15], 0.07 in series [17] and 0.054 in series [18]. The compound further returned an AUC at 24 h in series [16] of 89.4 µM·h.

Regarding `O=C(Nc1cccc2c(=O)cc(-c3nnn[nH]3)oc12)c1ccc(OCCCCc2ccccc2)cc1`, the figures for the Ratio in series [19] and in [21] were 0.122 and 0.134, respectively. For the same compound, the concentration for half-maximal inhibition (IC50) at Bile salt export pump is 2.97 µM; in [1], over 133 µM; in series [13], over 133 µM; in series [6], 2.7 µM. The compound also gave an AUC at 24 h in [20] of 8.71 µM·h. In [22], the concentration at 24 h stood at 363 nM.

Consider `CC(=O)O[C@@]12CO[C@@H]1C[C@H](O)[C@@]1(C)C(=O)[C@H](O)C3=C(C)[C@@H](OC(=O)[C@H](O)[C@@H](NC(=O)OC(C)(C)C)c4ccccc4)C[C@@](O)([C@@H](OC(=O)c4ccccc4)[C@H]21)C3(C)C` [DOCETAXEL ANHYDROUS], for which the Ratio in series [23] amounted to 0.16. Besides, the IC50 at Bile salt export pump was 41 µM; in [1], over 133 µM; in series [13], over 133 µM; in series [6], over 133 µM. The concentration at 1 h in [24] stood at 6520 nM. Further, the AUC at 1 h in series [25] turned out to be 6.51 µM·h.

Usually IC50 stands for the concentration needed to halve the response being measured. As usually defined, the AUC is concentration integrated over time. Read a low AUC as less exposure.
